Assay results as given in patent US20240408145A1, “Gene Therapy” (Ospedale San Raffaele S.r.l., priority 2021, published 2024).
“Also recorded” adds a separate entry of the source. Structures can show the parent of a compound that is named as a salt.

Tests used:
ATR [1] = target: T1, ATR (Mus musculus, UniProt Q9JKK8); settings: 3T3TopBP1-ER cells; cited from earlier work
T1 construct: endogenous in cells; host or cells: 3T3TopBP1-ER cells

JNK [2] = settings: cited from earlier work
JNK [3] = target: T2, JNK; settings: cited from earlier work
T2 construct: IC50; Ki

ATM kinase = ATM kinase (Homo sapiens, UniProt Q13315); settings: cited from earlier work
ATR [4] = target: ATR (Homo sapiens, UniProt Q13535); settings: cited from earlier work
Mv1Lu cells = settings: read-out: IC50, TGFβ-induced AP-1 activation; cited from earlier work
[5] = test system: human recombinant MEK1, MKK4, IKKα, PKCα, Src, Syc and PDGFα; settings: at concentrations less than 30 μM; cited from earlier work
[6] = cited from earlier work
human CD34+ HSPCs [7] = test: HDR gene editing efficiency in HSPCs (ddPCR, GFP flow cytometry); assay type: cell-based
JNK1, 2 and 3 = settings: cited from earlier work
JNK and JIP = settings: read-out: IC50, protein-protein interaction between JNK and JIP; cited from earlier work
c-Jun phosphorylation = settings: cited from earlier work
casein kinase 2 (CK2) = casein kinase 2 (CK2) (Homo sapiens, UniProt P68400); settings: cited from earlier work
[8] = target: extracellular-signal-regulated kinase 8 (ERK8) (Homo sapiens, UniProt Q8TD08); settings: cited from earlier work
PIM1 = PIM1 (Homo sapiens, UniProt P11309); settings: cited from earlier work
DYRK1a = DYRK1a (Homo sapiens, UniProt Q13627); settings: cited from earlier work
HIPK2 = HIPK2 (Homo sapiens, UniProt Q9H2X6); settings: cited from earlier work
BRD4 = BRD4 (Homo sapiens, UniProt O60885); settings: cited from earlier work
IL1A, IL8, IL6, CCL2 = test: Inflammatory cytokine expression in edited HSPCs (qPCR); assay type: cell-based, human; settings: CB HSPCs, HS/AAV6; inhibitor at time of GE vs standard protocol
human CD34+ HSPCs [9] = test: Colony-forming unit cell (CFU-C) assay; assay type: cell-based; settings: CB HSPCs, HS/AAV6; inhibitor at time of GE vs standard protocol; 24 h and 96 h post GE
edited human CD34+ HSPCs = test: CD34+ HSPC xenotransplantation in NSG mice; assay type: in vivo; settings: inhibitor at time of ex vivo GE (GSE56: limiting cell doses)
[10] = test system: BM-derived human CD34+ cells; test: CFU-C assay of CD34+ cells retrieved from bone marrow of primary recipients; assay type: cell-based; settings: 15-18 weeks, inhibitor at time of ex vivo GE vs standard protocol
IL8, CXCL10, p21, p16 = test: Gene expression in BM-derived HSPCs (qPCR); assay type: cell-based, human; settings: 18 weeks post transplantation, HS/AAV6 ± GSE56
Description: For gene expression analyses, total RNA was extracted using either miRNeasy Micro Kit (QIAGEN) according to the manufacturer's instructions and DNase treatment was performed using RNase-free DNase Set (QIAGEN). cDNA was synthetized with iScript cDNA Synthesis Kit (Bio-Rad). cDNA was then pre-amplified using TaqMan PreAmp Master Mix (ThermoFisher) and used for q-PCR in a Viia7 Real-time PCR thermal cycler using both Fast SYBR Green Master Mix (Thermofisher), after standard curve method optimization to reach the 100% primer efficiency for each couple of primers listed in 1. The relative expression of each target gene was first normalized to GUSB housekeeping genes expression and then represented as 2^-DCt for each sample or as fold changes (2^-DDCt) relative to the indicated control conditions.

[11] = test system: BM-derived human CD34+ cells; test: Senescence markers (p16, SA-β-Gal) in BM-derived cells of the human graft; assay type: in vivo, NSG mice; settings: NSG mice, endpoint 15-18 weeks; inhibitor at time of ex vivo GE

Chain of casein kinase 2 (CK2) (P68400 whole entry): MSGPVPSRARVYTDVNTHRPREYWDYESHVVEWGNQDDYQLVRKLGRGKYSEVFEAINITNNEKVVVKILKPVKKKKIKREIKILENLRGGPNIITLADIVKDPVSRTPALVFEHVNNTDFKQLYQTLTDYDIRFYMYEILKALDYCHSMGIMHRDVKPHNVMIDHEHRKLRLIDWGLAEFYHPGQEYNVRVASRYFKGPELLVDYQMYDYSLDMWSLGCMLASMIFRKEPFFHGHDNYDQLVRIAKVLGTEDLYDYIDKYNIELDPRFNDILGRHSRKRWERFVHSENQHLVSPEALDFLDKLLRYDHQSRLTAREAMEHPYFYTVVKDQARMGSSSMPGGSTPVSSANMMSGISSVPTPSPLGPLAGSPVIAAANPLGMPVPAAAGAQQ
Chain of ATR (Homo sapiens, UniProt Q13535) (Q13535 whole entry): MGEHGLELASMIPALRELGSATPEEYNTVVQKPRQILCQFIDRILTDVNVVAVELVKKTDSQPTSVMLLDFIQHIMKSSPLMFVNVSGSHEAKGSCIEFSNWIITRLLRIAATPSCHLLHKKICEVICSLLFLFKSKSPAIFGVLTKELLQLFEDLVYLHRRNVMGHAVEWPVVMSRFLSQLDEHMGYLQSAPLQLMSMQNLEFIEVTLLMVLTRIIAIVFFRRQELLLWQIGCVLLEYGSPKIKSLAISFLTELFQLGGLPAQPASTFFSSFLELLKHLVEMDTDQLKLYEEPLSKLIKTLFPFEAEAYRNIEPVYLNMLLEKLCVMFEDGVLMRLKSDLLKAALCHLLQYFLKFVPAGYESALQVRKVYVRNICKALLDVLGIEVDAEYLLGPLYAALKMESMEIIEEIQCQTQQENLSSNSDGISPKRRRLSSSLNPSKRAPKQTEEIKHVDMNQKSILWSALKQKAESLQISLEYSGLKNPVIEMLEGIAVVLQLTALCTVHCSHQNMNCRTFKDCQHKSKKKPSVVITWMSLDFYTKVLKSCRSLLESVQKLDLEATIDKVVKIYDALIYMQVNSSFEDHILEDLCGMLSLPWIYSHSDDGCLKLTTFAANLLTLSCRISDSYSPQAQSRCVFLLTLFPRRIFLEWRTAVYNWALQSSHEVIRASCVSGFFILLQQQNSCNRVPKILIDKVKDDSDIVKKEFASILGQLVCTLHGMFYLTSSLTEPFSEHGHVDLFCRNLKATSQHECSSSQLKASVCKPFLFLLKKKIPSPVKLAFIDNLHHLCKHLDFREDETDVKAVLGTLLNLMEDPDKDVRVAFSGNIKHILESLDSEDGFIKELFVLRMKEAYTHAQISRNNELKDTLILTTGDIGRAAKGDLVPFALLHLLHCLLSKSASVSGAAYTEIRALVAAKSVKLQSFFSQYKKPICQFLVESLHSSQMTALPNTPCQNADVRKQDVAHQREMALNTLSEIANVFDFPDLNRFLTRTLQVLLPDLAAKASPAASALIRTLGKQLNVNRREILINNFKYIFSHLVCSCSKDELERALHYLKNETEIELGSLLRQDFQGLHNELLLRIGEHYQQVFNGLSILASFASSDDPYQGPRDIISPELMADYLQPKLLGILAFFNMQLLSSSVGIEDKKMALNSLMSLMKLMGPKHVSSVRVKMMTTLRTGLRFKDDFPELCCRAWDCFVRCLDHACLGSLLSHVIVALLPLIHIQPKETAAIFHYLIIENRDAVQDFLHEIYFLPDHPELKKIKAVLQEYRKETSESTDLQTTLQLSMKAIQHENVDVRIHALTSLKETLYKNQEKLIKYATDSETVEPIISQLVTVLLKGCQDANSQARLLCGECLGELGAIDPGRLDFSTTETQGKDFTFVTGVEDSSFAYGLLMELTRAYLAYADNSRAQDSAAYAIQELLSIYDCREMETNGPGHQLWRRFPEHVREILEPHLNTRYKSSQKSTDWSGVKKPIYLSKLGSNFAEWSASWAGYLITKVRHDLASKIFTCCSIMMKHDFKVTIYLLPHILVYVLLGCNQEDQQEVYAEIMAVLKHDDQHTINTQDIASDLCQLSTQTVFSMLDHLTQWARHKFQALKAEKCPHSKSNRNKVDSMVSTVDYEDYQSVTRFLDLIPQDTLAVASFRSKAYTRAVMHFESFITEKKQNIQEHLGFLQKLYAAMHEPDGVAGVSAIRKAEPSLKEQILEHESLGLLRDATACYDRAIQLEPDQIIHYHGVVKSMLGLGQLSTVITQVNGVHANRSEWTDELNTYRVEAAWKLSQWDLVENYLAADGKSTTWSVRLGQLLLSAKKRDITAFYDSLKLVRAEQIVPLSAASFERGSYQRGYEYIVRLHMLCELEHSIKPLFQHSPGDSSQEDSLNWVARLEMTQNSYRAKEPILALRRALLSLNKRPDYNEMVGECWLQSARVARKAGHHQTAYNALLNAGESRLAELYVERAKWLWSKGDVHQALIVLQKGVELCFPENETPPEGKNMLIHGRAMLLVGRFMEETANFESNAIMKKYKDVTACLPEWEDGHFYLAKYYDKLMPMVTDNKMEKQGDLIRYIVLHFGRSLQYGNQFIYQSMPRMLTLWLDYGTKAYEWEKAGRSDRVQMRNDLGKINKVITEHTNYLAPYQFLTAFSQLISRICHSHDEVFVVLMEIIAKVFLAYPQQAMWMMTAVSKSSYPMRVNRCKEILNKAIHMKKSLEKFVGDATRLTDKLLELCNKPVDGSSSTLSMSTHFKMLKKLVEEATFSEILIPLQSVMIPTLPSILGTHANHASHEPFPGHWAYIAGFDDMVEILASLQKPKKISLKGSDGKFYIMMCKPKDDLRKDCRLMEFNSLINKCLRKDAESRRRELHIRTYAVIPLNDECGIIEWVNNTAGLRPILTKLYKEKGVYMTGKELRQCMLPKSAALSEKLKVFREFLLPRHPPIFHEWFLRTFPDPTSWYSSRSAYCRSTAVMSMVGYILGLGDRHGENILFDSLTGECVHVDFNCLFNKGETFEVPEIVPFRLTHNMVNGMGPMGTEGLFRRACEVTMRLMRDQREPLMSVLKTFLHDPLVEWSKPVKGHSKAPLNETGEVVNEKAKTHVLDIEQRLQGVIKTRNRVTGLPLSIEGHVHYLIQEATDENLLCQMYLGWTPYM
Chain of ATR (Homo sapiens, UniProt Q13535) (Q8WXE1 whole entry partner): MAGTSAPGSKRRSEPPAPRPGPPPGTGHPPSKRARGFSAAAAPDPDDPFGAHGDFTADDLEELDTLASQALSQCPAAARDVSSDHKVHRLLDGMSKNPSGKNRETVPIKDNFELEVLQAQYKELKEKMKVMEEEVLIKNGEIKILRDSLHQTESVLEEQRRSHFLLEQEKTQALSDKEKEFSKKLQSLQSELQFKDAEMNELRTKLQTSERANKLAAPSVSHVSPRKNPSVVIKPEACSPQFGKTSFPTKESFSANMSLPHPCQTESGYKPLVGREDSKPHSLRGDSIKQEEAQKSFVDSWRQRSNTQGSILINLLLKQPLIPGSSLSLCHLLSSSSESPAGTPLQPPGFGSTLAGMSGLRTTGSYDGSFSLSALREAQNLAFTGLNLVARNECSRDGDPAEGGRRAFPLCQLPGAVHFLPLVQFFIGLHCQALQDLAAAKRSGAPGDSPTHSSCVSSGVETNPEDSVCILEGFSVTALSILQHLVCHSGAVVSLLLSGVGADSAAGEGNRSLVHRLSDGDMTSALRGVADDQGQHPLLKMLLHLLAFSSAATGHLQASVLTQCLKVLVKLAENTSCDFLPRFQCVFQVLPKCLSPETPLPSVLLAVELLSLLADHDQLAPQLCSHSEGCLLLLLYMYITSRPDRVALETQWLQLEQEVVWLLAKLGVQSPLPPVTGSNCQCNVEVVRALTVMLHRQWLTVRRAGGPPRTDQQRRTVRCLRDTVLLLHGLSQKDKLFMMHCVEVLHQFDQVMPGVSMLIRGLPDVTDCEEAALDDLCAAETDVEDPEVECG
Chain of HIPK2 (Q9H2X6 whole entry, species assumed): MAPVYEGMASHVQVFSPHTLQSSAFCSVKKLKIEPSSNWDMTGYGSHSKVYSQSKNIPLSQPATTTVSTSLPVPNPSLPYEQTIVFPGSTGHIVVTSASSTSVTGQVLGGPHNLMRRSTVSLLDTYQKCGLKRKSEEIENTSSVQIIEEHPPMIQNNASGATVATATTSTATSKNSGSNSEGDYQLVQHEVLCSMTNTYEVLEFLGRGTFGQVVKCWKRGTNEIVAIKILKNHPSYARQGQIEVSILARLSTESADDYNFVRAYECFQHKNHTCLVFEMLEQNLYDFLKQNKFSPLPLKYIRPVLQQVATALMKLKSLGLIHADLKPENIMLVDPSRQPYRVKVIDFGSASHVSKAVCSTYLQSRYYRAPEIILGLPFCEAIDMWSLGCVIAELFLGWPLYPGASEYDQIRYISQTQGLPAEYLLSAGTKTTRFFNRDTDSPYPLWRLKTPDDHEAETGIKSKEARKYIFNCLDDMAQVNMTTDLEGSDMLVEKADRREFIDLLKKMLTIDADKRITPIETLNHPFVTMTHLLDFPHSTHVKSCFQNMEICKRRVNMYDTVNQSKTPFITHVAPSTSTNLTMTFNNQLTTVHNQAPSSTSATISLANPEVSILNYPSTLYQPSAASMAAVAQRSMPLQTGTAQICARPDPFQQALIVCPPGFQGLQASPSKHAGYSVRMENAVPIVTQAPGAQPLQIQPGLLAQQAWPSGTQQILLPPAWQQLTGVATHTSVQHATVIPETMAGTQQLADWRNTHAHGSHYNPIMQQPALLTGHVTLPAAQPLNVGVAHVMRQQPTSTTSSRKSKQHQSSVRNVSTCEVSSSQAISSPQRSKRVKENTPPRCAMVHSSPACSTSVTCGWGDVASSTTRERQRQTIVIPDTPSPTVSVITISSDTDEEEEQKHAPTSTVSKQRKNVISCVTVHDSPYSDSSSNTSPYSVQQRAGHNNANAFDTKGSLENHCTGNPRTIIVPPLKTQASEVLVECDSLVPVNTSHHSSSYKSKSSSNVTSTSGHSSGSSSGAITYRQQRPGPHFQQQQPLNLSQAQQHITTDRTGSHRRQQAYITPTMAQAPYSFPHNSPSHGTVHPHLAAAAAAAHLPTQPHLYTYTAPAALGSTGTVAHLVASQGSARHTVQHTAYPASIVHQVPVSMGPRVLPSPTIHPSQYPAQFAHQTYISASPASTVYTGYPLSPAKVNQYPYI

Cn1c(=O)n(-c2ccc(C(C)(C)C#N)cc2)c2c3cc(-c4cnc5ccccc5c4)ccc3ncc21 [BEZ235]
IC50 (ATR [1]): ~21 nM

Cl.Cl.c1cc(OCCN2CCCCC2)cc(-c2n[nH]c3ccc(-c4ncn[nH]4)cc23)c1 [CC 401 dihydrochloride, 3-[3-[2-(1-Piperidinyl)ethoxy]phenyl]-5-(1H-1,2,4-triazol-5-yl)-1H-indazole dihydrochloride]
selectivity for JNK over p38, ERK, IKK2, protein kinase C, Lck and ZAP70 (JNK [2]): > 40 fold | Ki (JNK [3]): 25 to 50 nM

O=C(NC(NC(=S)Nc1ccc(F)c([N+](=O)[O-])c1)C(Cl)(Cl)Cl)C(c1ccccc1)c1ccccc1 (centres unmarked) [CGK 733]
IC50 (ATM kinase): ~200 nM | IC50 (ATR [4]): ~200 nM

Nc1n[nH]c2nnc(-c3c(-c4ccccc4)nn4ccccc34)cc12 [FR180204, 5-(2-Phenyl-pyrazolo[1,5-a]pyridin-3-yl)-1H-pyrazolo[3,4-c]pyridazin-3-ylamine]
IC50 (Mv1Lu cells): 3100 nM | activity against MEK1, MKK4, IKKα, PKCα, Src, Syc and PDGFα [5]: no activity

O=c1cc(-c2cccc3c2Sc2ccccc2S3)oc(N2CCOCC2)c1 [KU-55933]
solubility [6]: soluble in DMSO and ethanol

C[S+]([O-])c1ccc(-c2nc(-c3ccncc3)c(-c3ccc(F)cc3)[nH]2)cc1 (centres unmarked) [SB 203580 hydrochloride]
solubility [6]: water-soluble

O=C1c2ccccc2-c2n[nH]c3cccc1c23 [SP600125, Anthra[1-9-cd]pyrazol-6(2H)-one]
GFP levels in HSPC subpopulations (GE efficiency) (human CD34+ HSPCs [7]; CB HSPCs, Erk (4 μM) or Jnk (2 μM) inhibitor day 1 and 2 vs DMSO, 96 h post-editing): increase in GFP levels | Percentage of more primitive edited cells (human CD34+ HSPCs [7]; Jnk inhibitor 2 μM day 1 and 2): higher percentage of more primitive edited cells | IC50 (JNK1, 2 and 3): 40 to 90 nM

Nc1nnc(Sc2ncc([N+](=O)[O-])s2)s1 [SU 3327, 5-[(5-Nitro-2-thiazolyl)thio]-1,3,4thiadiazol-2-amine]
IC50 (JNK [3]): 700 nM | IC50 (JNK and JIP): 239 nM

CCOc1nc(NC(=O)Cc2cc(OC)ccc2OC)cc(N)c1C#N [TCS JNK 6o, N-(4-Amino-5-cyano-6-ethoxy-2-pyridinyl)-2,5-dimethoxybenzeneacetamide]
EC50 (c-Jun phosphorylation): 920 nM

CN(C)c1nc2c(Br)c(Br)c(Br)c(Br)c2n1CC(=O)O [TMCB, 2-(4,5,6,7-Tetrabromo-2-(dimethylamino)-1H-benzo[d]imidazol-1-yl)acetic acid]
IC50 (casein kinase 2 (CK2)): 500 nM | Ki (casein kinase 2 (CK2)): 250 nM | IC50 [8]: 500 nM | Ki (PIM1): 8650 nM | Ki (DYRK1a): 11900 nM | Ki (HIPK2): 15200 nM

CCOc1cc(N2CCC(O)CC2)ccc1Nc1ncc2c(n1)N(C)c1ccccc1C(=O)N2C [XMD 8-92, 2-[[2-Ethoxy-4-(4-hydroxy-1-piperidinyl)phenyl]amino]-5,11-dihydro-5,11-dimethyl-6H-pyrimido[4,5-b][1,4]benzodiazepin-6-one]
Kd (BRD4): 190 nM

B1: GSE56: mRNA encoding for a dominant negative p53 truncated form (GSE56), co-electroporated; SEQ ID No. 8 and 9 (nucleic acid)
sense: ATGGATGGATGGTGTCCTGGGAGAGACCGTCGGACAGAGGAAGAAAATTTCCGCAAAAAAGAAGAGCATTGCCCGGAGCTGCCCCCAGGGAGTGCAAAGAGAGCACTGCCCACCAGCACAAGCTCCTCTCCCCAGCAAAAGAAAAAACCACTCGATGGAGAATATTTCACCCTTAAGATCCGTGGGCGTGAGCGCTTCGAGATGTTCCGAGAGCTGAATGAGGCCTTGGAATTAAAGGATGCCCGTGCTGCCGAGGAGTCAGGAGACAGCAGGGCTCACTCCAGCTACCCGAAGATAGTTAGTTAG
Percentage of HDR-edited alleles (ddPCR) (human CD34+ HSPCs [7]; CB HSPCs, AAVS1 editing (HS/AAV6), inhibitor at time of GE (Anakinra 50 ng/μl, SC514 25 μM, GSE56 mRNA, ATMi) vs standard protocol): tended to increase the percentage of HDR editing | Relative expression of inflammatory cytokine genes (IL1A, IL8, IL6, CCL2) (IL1A, IL8, IL6, CCL2): downregulation of the cytokines | Number of colonies (HSPC clonogenic potential) (human CD34+ HSPCs [9]): similarly increased | Human CD45+ engraftment in peripheral blood vs standard protocol (edited human CD34+ HSPCs): fourfold higher engraftment than the standard protocol | Number of colonies formed by BM-derived CD34+ cells [10]: improvement of HSPC clonogenic potential upon p53 inhibition; also recorded: became higher upon p53 inhibition | mRNA levels of p21, p16 and IL8 in BM-derived HSPCs (IL8, CXCL10, p21, p16): mitigated by the administration of GSE56 | Percentage of senescent cells (p16, SA-β-Gal) in BM-derived CD34+ / HDR-edited cells of the human graft [11]: prevented the accumulation of the senescence marker SA-β-gal; also recorded: this reduction was observed also upon p53 inhibition
